Results published in ChEMBL document CHEMBL1201862, “PubChem BioAssay data set” (2004).
Calls of active or inactive are those of the source.

Experiments:
Major prion protein = Major prion protein (Homo sapiens, UniProt P04156); format: functional, cell-based
[1] = target: Photoreceptor-specific nuclear receptor (Homo sapiens, UniProt Q9Y5X4); format: functional;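 further: potency for compounds that break the NR2E3 corepressor complex and count as activators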
[2] = target: Peroxisome proliferator-activated receptor gamma/Nuclear receptor corepressor 2 (Homo sapiens, UniProt P37231+Q9Y618); format: functional
[3] = target: Fructose-bisphosphate aldolase (Mycobacterium tuberculosis, UniProt P9WQA3); experiment: Fluorescence-based biochemical high throughput dose response assay for inhibitors of the fructose-bisphosphate aldolase (FBA) of M. tuberculosis.; format: functional
[4] = target: Disintegrin and metalloproteinase domain-containing protein 17 (Homo sapiens, UniProt P78536); experiment: ADAM17 protease inhibitors, dose response, counter-screen for ADAM10 exosite inhibitor project, biochemical, quenched FRET substrate (AID 743253)
[5] = ADAM10 inhibitors, peptide cleavage, dose response, biochemical, QFRET (AID 743254);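 further: ADAM10 enzyme with the DM2 quenched FRET peptide as substrate; EDANS fluorescence gain as the protease cuts the substrate; inhibitor potency against ADAM10 proteolytic activity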
[6] = target: 1-phosphatidylinositol 4,5-bisphosphate phosphodiesterase beta-3 (Homo sapiens, UniProt Q01970); experiment: Fluorescence-based biochemical high throughput dose response assay to identify inhibitors of phospholipase C isozymes (PLC-B3).
[7] = target: 1-phosphatidylinositol 4,5-bisphosphate phosphodiesterase gamma-1 (Homo sapiens, UniProt P19174); experiment: Counterscreen for inhibitors of phospholipase C isozymes (PLC-B3): Fluorescence-based biochemical high throughput dose response assay to identify inhibitors of phospholipase C isozymes (PLC-gamma1).
[8] = HepG2 cell cytotoxicity, dose response, cytotoxicity control, ATP luminescence, cherry-pick, activator set 2 (AID 1053143); format: functional, cell-based
[9] = target: T1, Oxysterols receptor LXR-beta (Homo sapiens, UniProt P55055); format: functional, cell-based;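 further: agonist activity at LXR measured by a cell-based luminescence readout across a dose range, run as a counterscreen for daf-12 agonists; HEK293 cells with Gal4-LXR fusion and GAL4-driven luciferase reporter; potency for activation of Gal4-LXR reporter so compounds are agonists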
T1 sequence (P55055 whole entry): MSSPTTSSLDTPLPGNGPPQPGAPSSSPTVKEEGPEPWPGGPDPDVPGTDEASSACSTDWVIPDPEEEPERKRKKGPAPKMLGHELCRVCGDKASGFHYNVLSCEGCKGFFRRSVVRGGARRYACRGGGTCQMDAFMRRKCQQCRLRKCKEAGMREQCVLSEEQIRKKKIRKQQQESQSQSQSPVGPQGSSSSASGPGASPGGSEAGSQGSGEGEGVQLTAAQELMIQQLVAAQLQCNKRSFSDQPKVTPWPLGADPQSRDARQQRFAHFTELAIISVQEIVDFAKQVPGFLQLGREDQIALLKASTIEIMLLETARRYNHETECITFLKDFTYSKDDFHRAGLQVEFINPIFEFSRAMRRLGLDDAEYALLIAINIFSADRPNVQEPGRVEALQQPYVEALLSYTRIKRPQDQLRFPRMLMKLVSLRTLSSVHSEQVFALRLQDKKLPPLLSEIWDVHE

[10] = target: Neurotensin receptor type 1 (Homo sapiens, UniProt P30989); format: functional;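 further: Image-based confirmatory dose-response assay measuring agonist activity at NTR1; NTR1-expressing U2OS osteosarcoma cells imaged for beta-arrestin GFP spot formation; agonist potency where compounds increase beta-arrestin recruitment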
Beta-galactosidase = Beta-galactosidase (Escherichia coli, UniProt Q8VNN2); experiment: Dose response counterscreen for EBI2 assay utilizing the enzyme, b-galactosidase.; format: functional

In the case of `CC(C)C1Cc2ccccc2-c2[nH]c(=S)[nH]c(=O)c21` (stereo not given), the IC50 (Major prion protein) is reported as 4.87 µM (active), the IC50 [1] is reported as > 39.8 µM (not active) and the IC50 [2] is reported as 4.66 µM (active).

With `CC(C)C1Cc2ccccc2-c2nc(S)nc(O)c21` (stereo not given) the IC50 (cells) was > 138 µM (inactive).

In the case of `Cc1cccc(C)c1NC(=S)Nc1ccccc1C(=O)NCc1ccco1`, the IC50 [3] is reported as 6.61 µM (active).

For `CSc1cccc(NC(=O)CCCOc2ccc(Cl)cc2C)c1`, the IC50 [4] was > 69.5 µM (inactive) and the IC50 [5] was 65.6 µM (inactive).

In the case of `Cc1cc(C(=O)NNC(=S)NCC(C)C)cs1`, the IC50 [6] is reported as > 122 µM (inactive) and the IC50 [7] is reported as > 122 µM (inactive).

For `COc1cccc(-c2nc(-c3ccc(Br)o3)no2)c1`, the AC50 [8] was > 52 µM (inactive) and the EC50 [9] was > 67.5 µM (inactive).

For `Cc1ccc(C(=O)Nc2nnc(N=C(S)Nc3ccccc3)s2)cc1`, the IC50 [5] was > 69.5 µM (inactive).

With `Cc1ccc(C(=O)Nc2nnc(NC(=S)Nc3ccccc3)s2)cc1` the IC50 [4] was > 69.5 µM (inactive) and the EC50 [10] was 7.59 µM (active).

In the case of `COc1ccc(-c2ccc(-c3nc4ccc(C)cn4c3NC3CCCCC3)cc2OC)cc1`, the IC50 (Beta-galactosidase) is reported as 77.5 µM (inactive).
